Source: patent publication US4752469A, “Potentiators of beta-lactam antibiotics” (E. R. Squibb & Sons, Inc., priority 1984, dated 1988)
≈ marks a conversion by molar mass, not a printed value. Entries after “also recorded” stand apart in the source; their conditions may differ. Read-outs that look alike come from different tables or passages of the source. Starred links: 1 amine or outer side, 2 acyl side, 3 side chain; linkers in the order of their positions; H or OH if unused. Non-standard residues stand in square brackets, D forms with d. Residues, ends and D or L forms follow the SMILES beside them. ξ: configuration not given here. *: point of attachment. X1 = CC(=O)N[C@H]1[C@H](OC2CC(C(=O)[*:2])N([*:1])C2CO)O[C@H](CO)[C@@H](OS(=O)(=O)O)[C@@H]1O; βGlcNAc = CC(=O)N[C@@H]1[C@@H](O)[C@H](O)[C@@H](CO)O[C@H]1*; ξE = NC(CCC(=O)O)C(=O)O; ξK = NCCCCC(N)C(=O)O; ξT = CC(O)C(N)C(=O)O; ξS = NC(CO)C(=O)O

Assays:
gram-negative bacteria = assay: enhancement of antibacterial activity of β-lactam antibiotics (general statement); type: cell-based; details: e.g., aztreonam, ampicillin, piperacillin and moxalactam, in words
Description: Moellering, Jr. in: Antibiotics in Laboratory Medicine, ed. V. Lorian, pps. 298-341, Williams and Wilkins, 1980.

Proteus rettgeri SC 8479 [1] = details: for potentiation of cell wall synthesis inhibitors other than β-lactams: Proteus rettgeri system; for potentiation of cell wall synthesis inhibitors other than β-lactams / potentiation of β-lactam antibiotics: in words; for potentiation of β-lactam antibiotics: vs. Proteus rettgeri
Protocol: (§1) The technique used was the double disk diffusion test, described by D. J. Krogstad and R. C. Moellering, Jr. in: Antibiotics in Laboratory Medicine, ed. V. Lorian, pps. 298-341, Williams and Wilkins, 1980. Disks contained 30 μg of compound, and unless noted otherwise, were placed adjacent to each other on the surface of a nutrient agar seeded with a test organism in a Petri dish.

Escherichia coli SC 8294 = details: for Interaction: Escherichia coli SC 8294; for potentiation of β-lactam antibiotics: vs. Escherichia coli, in words
Protocol: as §1

[2] = tested on: Salmonella typhosa SC 1195
[3] = tested on: Staphylococcus aureus SC 1276; details: agar dilution
Proteus rettgeri SC 8479 [4] = details: agar dilution
[5] = tested on: Proteus mirabilis SC 3855; details: agar dilution
Proteus vulqaris SC 9416 = details: agar dilution
[6] = 30 μg/disc compound plus Cefoxitin 30 μg/disc
[7] = 30 μg/disc compound plus Cephalothin 30 μg/disc
[8] = 30 μg/disc compound plus Mecillinam 10 μg/disc
[9] = 30 μg/disc compound plus N--f-thienamycin 30 μg/disc

For `CC(=O)N[C@H]1[C@H](OC2CC(C(=O)NC(CCCCN)C(=O)NC(C(=O)NC(CO)C(=O)NC(CCC(=O)O)C(=O)NC(CO)C(=O)O)C(C)O[C@@H]3O[C@H](CO)[C@@H](O)[C@H](O)[C@H]3NC(C)=O)NC2CO)O[C@H](CO)[C@@H](OS(=O)(=O)O)[C@@H]1O` (some centres unmarked) [SQ 28,546] (H-[X1][ξK][ξT](βGlcNAc)[ξS][ξE][ξS]-OH), the “enhancement of the antibacterial activity of β-lactam antibiotics” value (gram-negative bacteria) was “potentiates the antibiotic activity of several β-lactam antibiotics; also recorded: enhance the antibacterial activity of β-lactam antibiotics”, the Interaction (Proteus rettgeri SC 8479 [1]; 30 μg/disc compound plus Vancomycin 30 μg/disc, Proteus rettgeri SC 8479) was “I” and the “potentiation of cell wall synthesis inhibitors other than β-lactams” value (Proteus rettgeri SC 8479 [1]) was “potentiation occurs with cell wall synthesis inhibitors other than β-lactams”. The “potentiation of β-lactam antibiotics” value (Proteus rettgeri SC 8479 [1]) was “potentiate the activity of β-lactam antibiotics”, the Interaction (Escherichia coli SC 8294; 30 μg/disc compound plus Azocillin 30 μg/disc) was “I” and the Interaction (Escherichia coli SC 8294; 30 μg/disc compound plus Cefamandole 30 μg/disc) was “I”. The Interaction (Escherichia coli SC 8294; 30 μg/disc compound plus Cefotaxime 30 μg/disc) was “I”, the Interaction (Escherichia coli SC 8294; [6]) was “I” and the Interaction (Escherichia coli SC 8294; [7]) was “I”. For the same compound, the Interaction (Escherichia coli SC 8294; 30 μg/disc compound plus Diumycin 30 μg/disc) was “I”, the Interaction (Escherichia coli SC 8294; 30 μg/disc compound plus Fosfonomycin 30 μg/disc) was “I” and the Interaction (Escherichia coli SC 8294; [8]) was “I”. The Interaction (Escherichia coli SC 8294; [9]) was “I”, the Interaction (Escherichia coli SC 8294; 30 μg/disc compound plus Penicillin G 100 Units/disc) was “I” and the Interaction (Escherichia coli SC 8294; 30 μg/disc compound plus Vancomycin 30 μg/disc) was “I”. The “potentiation of β-lactam antibiotics” value (Escherichia coli SC 8294) was “potentiate the activity of β-lactam antibiotics”, the MIC [2] was 25.0 µg/mL (≈ 21.2 µM) and the MIC [3] was > 100 µg/mL. It also gave an MIC (Proteus rettgeri SC 8479 [4]) of 12.5 µg/mL (≈ 10.6 µM), an MIC [5] of 25 µg/mL (≈ 21.2 µM) and an MIC (Proteus vulqaris SC 9416) of 12.5 µg/mL (≈ 10.6 µM).
For `CC(=O)N[C@@H]1[C@H](O[C@@H]2C[C@@H](C(=O)N[C@@H](CCCCN)C(=O)N[C@H](C(=O)N[C@@H](CO)C(=O)O)[C@@H](C)O[C@@H]3O[C@@H](CO)[C@@H](O)[C@H](O)[C@@H]3NC(C)=O)NC2CO)O[C@@H](CO)[C@@H](OS(=O)(=O)O)[C@@H]1O` (some centres unmarked) [SQ 28,504], the “enhancement of the antibacterial activity of β-lactam antibiotics” value (gram-negative bacteria) was “potentiates the antibiotic activity of several β-lactam antibiotics; also recorded: enhance the antibacterial activity of β-lactam antibiotics”, the “potentiation of cell wall synthesis inhibitors other than β-lactams” value (Proteus rettgeri SC 8479 [1]) was “potentiation occurs with cell wall synthesis inhibitors other than β-lactams” and the “potentiation of β-lactam antibiotics” value (Proteus rettgeri SC 8479 [1]) was “potentiate the activity of β-lactam antibiotics”. The Interaction (Escherichia coli SC 8294; [6]) was “I”, the Interaction (Escherichia coli SC 8294; [7]) was “I” and the Interaction (Escherichia coli SC 8294; [8]) was “I”. The Interaction (Escherichia coli SC 8294; [9]) was “I” and the “potentiation of β-lactam antibiotics” value (Escherichia coli SC 8294) was “potentiate the activity of β-lactam antibiotics”.
